US20240302353A1, “CELL CULTURE DEVICE, KIT FOR CELL CULTURE, AND CELL CULTURE METHOD” (FUJIFILM Corporation, priority 2021, published 2024)

System: intestinal epithelial cells F-hiSIEC
Test: Permeation test of Lucifer yellow across intestinal epithelial cell sheet on cell culture insert
Type: in vitro ADME
Conditions: for Permeability coefficient (Papp) Average (mean): 110 μM Lucifer yellow/HBSS, 37° C., 1 hour
Protocol: One gas absorbent (oxygen scavenger) (Anaeropack: Mitsubishi Chemical Corporation) was installed in the upper tank of the cell culture device in FIG. 1, the upper tank portion was sealed, and the sealed upper tank portion was installed on the 6-well plate, which was the lower tank portion. In addition, intestinal epithelial cells F-hiSIEC (FUJIFILM Corporation) were seeded on a cell culture insert (Millipore) coated with Matrigel, and cultured for 9 days according to a manual using F-hiSIEC Culture Medium (FUJIFILM Corporation). 150 μL of F-hiSIEC Culture Medium (FUJIFILM Corporation) was added to an upper surface of the cell culture insert on which the cells on the 9th day of the culture had been seeded, and the cell culture insert was installed in the device from a lower side of the upper tank of the device, using the insertion tool shown in FIG. 5. While sandwiching the cell culture insert, 1 mL of a culture medium was added to a well plate of the lower tank, the upper tank portion of the device was installed in the well plate, and the entire device was placed in a CO2 incubator for culture for 72 hours. After the culture, a trans-epithelial electrical resistance (TEER) value of the intestinal epithelial cells was measured with an EVOM2 system. In addition, the permeation rate (Papp) of Lucifer yellow and the gene expression of various intestinal epithelial cell markers were compared with cells cultured under aerobic conditions in both the upper tank and the lower tank. The aerobic conditions in the upper tank and the lower tank mean cells cultured by installing a lid attached to the well plate without using the co-culture device. In the permeation test of Lucifer yellow, the upper and lower culture media in the insert containing the cells are substituted with HBSS and incubated at 37° C. for 1 hour. […] After 1 hour, the amount of substance which had passed through the lower part of the cell culture insert was quantified by a plate reader (Enspire, PerkinElmer Inc.), and the permeation rate and the permeability coefficient (Papp) were calculated.

## Lucifer yellow
F-hiSIEC cells cultured 72 hours in the cell culture device (upper tank anaerobic, lower tank aerobic)
  Permeability coefficient (Papp) Average (mean): 1.54 ×10⁻⁶ cm/s
F-hiSIEC cells cultured 72 hours under aerobic conditions in both upper and lower tank (no device)
  Permeability coefficient (Papp) Average (mean): 0.7 ×10⁻⁶ cm/s
Anaerobic vs aerobic cultured F-hiSIEC cells, 72 hours culture
  Increase of Papp in anaerobic cultured cells as compared with aerobic cells: approximately 2 times
